# Laboratory results: ChEMBL document CHEMBL4808164, “Giffonins, Antioxidant Diarylheptanoids from Corylus avellana, and Their Ability to Prevent Oxidative Changes in Human Plasma Proteins” (J Nat Prod, 2021)
# Active and inactive are the calls of the source. No cut-off for these calls is given here.
# How the values were obtained:
# Plasma [1] = test: Antioxidant activity in human plasma assessed as inhibition of H2O2/[…]-induced lipid peroxidation at 10 uM incubated for 30 mins by TBARS assay; assay type: functional, cell-free
# Plasma [2] = test: Antioxidant activity in human plasma assessed as inhibition of H2O2-induced lipid peroxidation at 10 uM incubated for 30 mins by TBARS assay; assay type: functional, cell-free
# Plasma [3] = test: Effect on autoxidation of thiol group in human plasma protein at 0.1 to 100 uM by Ellman reagent based spectrophotometry; assay type: ADME, cell-free; settings: dose 0.1-100 µM
# Plasma [4] = test: Effect on auto-carbonylation of human plasma protein at 0.1 to 100 uM; assay type: ADME, cell-free; settings: dose 0.1-100 µM
# Plasma [5] = test: Antioxidant activity in human plasma protein assessed as reduction of H2O2/Fe2+-induced oxidation of thiol group at 10 uM incubated for 30 mins by Ellman reagent based spectrophotometry; assay type: functional, cell-free
# Plasma [6] = test: Antioxidant activity in human plasma protein assessed as reduction of H2O2-induced oxidation of thiol group at 10 uM incubated for 30 mins by Ellman reagent based spectrophotometry; assay type: functional, cell-free
# Plasma [7] = test: Antioxidant activity in human plasma protein assessed as reduction of H2O2/Fe2+-induced plasma protein carbonylation at 10 uM incubated for 30 mins; assay type: functional
# Plasma [8] = test: Antioxidant activity in human plasma protein assessed as reduction of H2O2-induced plasma protein carbonylation at 10 uM incubated for 30 mins; assay type: functional, cell-free
smiles,measurement,setting,value
O=C1CCc2ccc(O)c(c2)-c2cc(ccc2O)C[C@@H](O)[C@H](O)C1,inhibition,Plasma [1],11.2%
same,inhibition,Plasma [2],3.9%
O=C1C[C@@H](O)Cc2ccc(O)c(c2)-c2cc(ccc2O)C[C@H](O)[C@H]1O,inhibition,Plasma [1],4.2%
same,inhibition,Plasma [2],6.2%
O=C1/C=C/CCc2ccc(O)c(c2)-c2cc(ccc2O)CC1,Activity,Plasma [3],Non-Toxic
same,Activity,Plasma [4],Non-Toxic
same,Activity,Plasma [5],Active
same,Activity,Plasma [6],Active
Oc1ccc2cc1-c1cc(ccc1O)C[C@H](O)[C@@H](O)[C@@H](O)C[C@@H](O)C2,inhibition,Plasma [1],14.4%
same,inhibition,Plasma [2],33.3%
COc1cc(/C=C/C(=O)CC(=O)/C=C/c2ccc(O)c(OC)c2)ccc1O,inhibition,Plasma [1],23.2%
same,inhibition,Plasma [2],20.6%
O=C1CCc2ccc(O)c(c2)-c2cc(ccc2O)C[C@H](O[C@@H]2O[C@H](CO)[C@@H](O)[C@H](O)[C@H]2O)C[C@@H]1O,inhibition,Plasma [1],4.8%
same,inhibition,Plasma [2],3.9%
COc1c(O)cc2cc1Oc1ccc(cc1)CC[C@@H](O)/C=C/C=C\2,Activity,Plasma [3],Non-Toxic
same,Activity,Plasma [4],Non-Toxic
same,Activity,Plasma [7],Active
same,Activity,Plasma [8],Active
same,Activity,Plasma [5],Active
same,Activity,Plasma [6],Active
COc1c2cc(c(OC)c1O)Oc1ccc(cc1)[C@@H](O)C[C@H](O)/C=C/C=C/2,Activity,Plasma [3],Non-Toxic
same,Activity,Plasma [4],Non-Toxic
same,inhibition,Plasma [1],25.5%
same,Activity,Plasma [7]; 0.5 h,65%
same,Activity,Plasma [8],Active
same,Activity,Plasma [5],Active
same,Activity,Plasma [6],Active
same,inhibition,Plasma [2],24.2%
COc1c2cc(c(OC)c1O)Oc1ccc(cc1)CCCC[C@@H](O)/C=C\2,Activity,Plasma [3],Non-Toxic
same,Activity,Plasma [4],Non-Toxic
same,Activity,Plasma [7],Active
same,Activity,Plasma [8],Active
same,Activity,Plasma [5],Active
same,Activity,Plasma [6],Active
Oc1ccc2cc1-c1cc(ccc1O)C[C@H](O)[C@H](O)C(O)[C@@H](O)[C@H](O)C2 (some centres undefined),inhibition,Plasma [1],10.4%
same,inhibition,Plasma [2],33.6%
COc1c2cc(c(OC)c1O)Oc1ccc(cc1)CC[C@@H](O)/C=C/C=C\2,Activity,Plasma [3],Non-Toxic
same,Activity,Plasma [4],Non-Toxic
same,Activity,Plasma [7]; 0.5 h,65%
same,Activity,Plasma [8],Active
same,Activity,Plasma [5],Active
same,Activity,Plasma [6],Active
COc1c2cc(c(OC)c1O)Oc1ccc(cc1)[C@@H](O)C[C@H](O)CC/C=C/2,inhibition,Plasma [1],4%
same,inhibition,Plasma [2],2.7%
O=C1CCc2ccc(O)c(c2)-c2cc(ccc2O)C[C@H](O)[C@@H](O)[C@@H]1O,Activity,Plasma [3],Non-Toxic
same,Activity,Plasma [4],Non-Toxic
same,Activity,Plasma [7],Active
same,Activity,Plasma [8],Active
same,Activity,Plasma [5],Active
same,Activity,Plasma [6],Active
COc1c2cc(c(OC)c1O)Oc1ccc(cc1)CCC(=O)CC/C=C\2,Activity,Plasma [3],Non-Toxic
same,Activity,Plasma [4],Non-Toxic
same,Activity,Plasma [5],Active
same,Activity,Plasma [6],Active
O=C1CCc2ccc(O)c(c2)-c2cc(ccc2O)C[C@H](O)C[C@H]1O,Activity,Plasma [3],Non-Toxic
same,Activity,Plasma [4],Non-Toxic
same,inhibition,Plasma [1],34.1%
same,Activity,Plasma [7],Active
same,Activity,Plasma [8],Active
same,Activity,Plasma [5],Active
same,Activity,Plasma [6],Active
same,inhibition,Plasma [2],44.4%
O=C1[C@@H](O)Cc2ccc(O)c(c2)-c2cc(ccc2O)C[C@@H](O)[C@H](O)[C@H]1O,inhibition,Plasma [1],23.9%
same,inhibition,Plasma [2],3.8%
